Measured values reported in US20070149505A1, “Method of Inhibiting Adhesion Formation” (SmithKline Beecham Corporation, priority 2001, published 2007).
Several values for one entry are separate records, joined by “and”; a condition that tells them apart may be missing. Equal values may be shown once.

Test system: uterine horn adhesions
Experiment: rabbit uterine horn model of adhesion formation, oral + local (gel) COMPOUND 1 study
Assay type: in vivo, New Zealand White rabbits
Design: key to tenacity of the adhesions score (in parentheses), Right Horn, Bowel / tenacity of the adhesions score (in parentheses), Right Horn, Itself / tenacity of the adhesions score (in parentheses), Left Horn, Itself / tenacity of the adhesions score (in parentheses), Right Horn, Left / tenacity of the adhesions score (in parentheses), Left Horn, Bowel / tenacity of the adhesions score (in parentheses), Left Horn, Right / tenacity of the adhesions score (in parentheses), Right Horn, Bladder / tenacity of the adhesions score (in parentheses), Left Horn, Bladder: 0=No Adhesions; 1=mild, easily dissectable adhesions; 2=moderate adhesions; non-dissectable, does not tear the organ; 3=dense adhesions; non-dissectable, tears organ when removed; key to Overall score: overall adhesion score; 1 = mild, 1.5+ slightly tougher/more extensive
Conditions: for Overall, (group summary): group value ± spread, overall scores analyzed by rank order analysis
Protocol: The compounds of the instant invention are tested in known models of adhesion formation. These test systems include a rabbit sidewall model of adhesion formation as described in Rogers, et al., J. Invest. Surg., 9:388-391 (1996) and Rodgers, et al., […], 69(3):403-408 (1998); a rat model for adhesion formation as described in Harris, et al., Surgery, 117:663-669 (1995); and a rabbit animal model used to examine laparoscopic adhesion prevention. The rabbit uterine horn model may also be used to test the use of the instant vitronectin inhibiting compounds as inhibitors of adhesion formation. The experimental details and results using this model are detailed below.
Animals: New Zealand White rabbits, 2.4-2.7 kg, were purchased and quarantined for at least 2 days prior to use. The rabbits were randomized into appropriate control and treatment groups (see experimental designs below). The rabbits were housed on a 12:12 light:dark cycle with food and water available ad libitum. Each treatment group in all studies contained 8-10 animals.
Adhesion Model: The animals that received COMPOUND 1 or vehicle according to the experimental design (below). The rabbits that received placebo at surgery received two doses of vehicle orally. Rabbits were anesthetized with a mixture of 55 mg/kg ketamine hydrochloride and 5 mg/kg Rompum intramuscularly. Following preparation for sterile surgery, a midline laparotomy was performed. The uterine horns were exteriorized and traumatized by abrasion of the serosal surface with gauze until punctate bleeding developed. Ischemia of both uterine horns was induced by removal of the collateral blood supply. The remaining blood supply to the uterine horns was the ascending branches of the utero-vaginal arterial supply of the myometrium. The midline muscle and skin incision were closed.
After 7 or 14 days, the rabbits were terminated and adhesions were scored on a site and rabbit basis. Specifically, the percentage of the area of the horns adherent to various organs was determined. In addition, the tenacity of the adhesions was scored using the following system:
1=mild, easily dissectable adhesions
3=dense adhesions; non-dissectable, tears organ when removed
An overall score which took into account all of the above data was given to each rabbit. The following scoring system was used:
0.5+ Light, filmy pelvic adhesions involving only one organ, typically only 1 or 2 small adhesions
1.0+ Light, filmy adhesions, not extensive although slightly more extensive than 0.5
1.5+ Adhesions slightly tougher and more extensive than a 1 rating
2.0+ Tougher adhesions, a little more extensive, uterine horns usually have adhesions to both bowel and bladder
2.5+ Same as 2, except the adhesions are usually not filmy at any site and more extensive
3.0+ Tougher adhesions than 2, more extensive, both horns are attached to the bowel and bladder, some movement of the uterus possible
3.5+ Same as 3, but adhesions slightly more extensive and tougher
4.0+ Severe adhesions, both horns attached to the bowel and bladder, unable to move the uterus without tearing the adhesions
The rabbits were scored by two independent observers that were blinded to the prior treatment of the animal. If there was disagreement as to the score to be assigned to an individual animal, the higher score was given.
Statistical Analysis: The tenacity and overall scores were analyzed by rank order analysis and analysis of variance on the ranks. The percentage area of the horns involved to the various organs were compared by Student's t test.
[…] received two loading doses of 60 mg/kg COMPOUND 1 orally prior to surgery. At the end of the procedure, the animals received either nothing (surgical control), or 12 ml of placebo (10% CMC) or one of two doses (1 mg/ml or 0.1 mg/ml) of COMPOUND 1 at the site of surgical injury.
Oral+local study: Two loading doses of COMPOUND 1 (60 mg/kg, po) were administered orally prior to surgery. […]

[1] = 0.1 mg/ml COMPOUND 1, 2 Week Necropsy Time (Table 4), group mean ± spread
[2] = 0.1 mg/ml COMPOUND 1, 2 Week Necropsy Time (Table 4), individual rabbit
[3] = 0.1 mg/ml COMPOUND 1, 2 Week Necropsy Time (Table 4), individual rabbit, dash = site adhesion free
[4] = 0.1 mg/ml COMPOUND 1, 2 Week Necropsy Time (Table 8), group mean ± spread
[5] = 0.1 mg/ml COMPOUND 1, 2 Week Necropsy Time (Table 8), individual rabbit
[6] = 0.1 mg/ml COMPOUND 1, 2 Week Necropsy Time (Table 8), individual rabbit, dash = site adhesion free
[7] = 0.1 mg/ml COMPOUND 1, listed after Control/Placebo 1 Week
[8] = 0.1 mg/ml COMPOUND 1, listed after Control/Placebo 2 Weeks
[9] = 1 mg/ml COMPOUND 1, 1 Week Necropsy Time, group mean ± spread
[10] = 1 mg/ml COMPOUND 1, 1 Week Necropsy Time, individual rabbit
[11] = 1 mg/ml COMPOUND 1, 1 Week Necropsy Time, individual rabbit, dash = site adhesion free
[12] = 1 mg/ml COMPOUND 1, 2 Week Necropsy Time, group mean ± spread
[13] = 1 mg/ml COMPOUND 1, 2 Week Necropsy Time, individual rabbit
[14] = 1 mg/ml COMPOUND 1, 2 Week Necropsy Time, individual rabbit, dash = site adhesion free
[15] = 1 mg/ml COMPOUND 1, listed after Control/Placebo 1 Week
[16] = 1 mg/ml COMPOUND 1, listed after Control/Placebo 2 Weeks

## O=C(O)C[C@@H]1Cc2ccc(OCCCNc3ccccn3)cc2CN(CC(F)(F)F)C1=O [COMPOUND 1, (S)-3-oxo-8-[3-(pyridin-2-ylamino)-1-propyloxy]-2-(2,2,2-trifluoroethyl)-2,3,4,5-tetrahydro-1H-2-benzazepine-4-acetic acid]
[1]
  % Horn Involved, Left Horn, Bladder: 7.0 ± 5.0%
  % Horn Involved, Left Horn, Bowel: 10.0 ± 4.2%
  % Horn Involved, Left Horn, Itself: 22.0 ± 3.6%
  % Horn Involved, Left Horn, Right: 21.0 ± 4.8%
  % Horn Involved, Right Horn, Bladder: 9.0 ± 4.8%
  % Horn Involved, Right Horn, Bowel: 10.0 ± 4.2%
  % Horn Involved, Right Horn, Itself: 16.0 ± 5.0%
  % Horn Involved, Right Horn, Left: 21.0 ± 4.8%
0.1 mg/ml COMPOUND 1, 2 Week Necropsy Time (Table 4)
  Overall, (group summary): 30.2 ± 6.2
[2]
  Overall score: 1.5 (3×) and 2.0 (2×) and 1.0 (2×) and 0.5 and 2.5 (2×)
  tenacity of the adhesions score (in parentheses), Left Horn, Bladder: 1
  tenacity of the adhesions score (in parentheses), Left Horn, Bowel: 1
  tenacity of the adhesions score (in parentheses), Left Horn, Itself: 1 (7×) and 2 (2×)
  tenacity of the adhesions score (in parentheses), Left Horn, Right: 1 (6×) and 2 (2×)
  tenacity of the adhesions score (in parentheses), Right Horn, Bladder: 1
  tenacity of the adhesions score (in parentheses), Right Horn, Bowel: 1
  tenacity of the adhesions score (in parentheses), Right Horn, Itself: 1 (4×) and 2 (2×)
  tenacity of the adhesions score (in parentheses), Right Horn, Left: 1 (6×) and 2 (2×)
[3]
  % Horn Involved, Left Horn, Bladder: 10% (2×) and 50%
  % Horn Involved, Left Horn, Bowel: 10% (2×) and 20% (2×) and 40%
  % Horn Involved, Left Horn, Itself: 40% and 30% (3×) and 20% (4×) and 10%
  % Horn Involved, Left Horn, Right: 30% (3×) and 40% (2×) and 20% and 10% (2×)
  % Horn Involved, Right Horn, Bladder: 10% (4×) and 50%
  % Horn Involved, Right Horn, Bowel: 10% (2×) and 20% (2×) and 40%
  % Horn Involved, Right Horn, Itself: 40% and 30% (3×) and 10% and 20%
  % Horn Involved, Right Horn, Left: 30% (3×) and 40% (2×) and 20% and 10% (2×)
[4]
  % Horn Involved, Left Horn, Bladder: 7.0 ± 3.4%
  % Horn Involved, Left Horn, Bowel: 15.0 ± 5.0%
  % Horn Involved, Left Horn, Itself: 23.0 ± 5.6%
  % Horn Involved, Left Horn, Right: 15.0 ± 4.8%
  % Horn Involved, Right Horn, Bladder: 7.0 ± 3.4%
  % Horn Involved, Right Horn, Bowel: 13.0 ± 4.7%
  % Horn Involved, Right Horn, Itself: 11.0 ± 3.5%
  % Horn Involved, Right Horn, Left: 15.0 ± 4.8%
0.1 mg/ml COMPOUND 1, 2 Week Necropsy Time (Table 8)
  Overall, (group summary): 22.0 ± 4.8
[5]
  Overall score: 2.0 (2×) and 1.5 (4×) and 1.0 (2×) and 0.5 (2×)
  tenacity of the adhesions score (in parentheses), Left Horn, Bladder: 1
  tenacity of the adhesions score (in parentheses), Left Horn, Bowel: 1
  tenacity of the adhesions score (in parentheses), Left Horn, Itself: 1
  tenacity of the adhesions score (in parentheses), Left Horn, Right: 1
  tenacity of the adhesions score (in parentheses), Right Horn, Bladder: 1
  tenacity of the adhesions score (in parentheses), Right Horn, Bowel: 1
  tenacity of the adhesions score (in parentheses), Right Horn, Itself: 1
  tenacity of the adhesions score (in parentheses), Right Horn, Left: 1
[6]
  % Horn Involved, Left Horn, Bladder: 30% and 10% (2×) and 20%
  % Horn Involved, Left Horn, Bowel: 40% and 30% (3×) and 10% (2×)
  % Horn Involved, Left Horn, Itself: 30% (4×) and 50% and 20% and 40%
  % Horn Involved, Left Horn, Right: 10% and 40% and 30% (2×) and 20% (2×)
  % Horn Involved, Right Horn, Bladder: 30% and 10% (2×) and 20%
  % Horn Involved, Right Horn, Bowel: 40% and 30% (2×) and 10% (3×)
  % Horn Involved, Right Horn, Itself: 30% (2×) and 10% (5×)
  % Horn Involved, Right Horn, Left: 10% and 40% and 30% (2×) and 20% (2×)
[7]
  # Sites Adhesion Free: 34
  % Sites Adhesion Free: 42.5%
[8]
  # Sites Adhesion Free: 31
  % Sites Adhesion Free: 38.75%
[9]
  % Horn Involved, Left Horn, Bladder: 0.0 ± 0.0%
  % Horn Involved, Left Horn, Bowel: 18.0 ± 4.2%
  % Horn Involved, Left Horn, Itself: 18.0 ± 4.7%
  % Horn Involved, Left Horn, Right: 15.0 ± 4.0%
  % Horn Involved, Right Horn, Bladder: 3.0 ± 1.5%
  % Horn Involved, Right Horn, Bowel: 19.0 ± 3.8%
  % Horn Involved, Right Horn, Itself: 10.0 ± 4.2%
  % Horn Involved, Right Horn, Left: 15.0 ± 4.0%
1 mg/ml COMPOUND 1, 1 Week Necropsy Time
  Overall, (group summary): 21.3 ± 3.9
[10]
  Overall score: 1.0 (3×) and 0.5 and 1.5 (5×) and 2.0
  tenacity of the adhesions score (in parentheses), Left Horn, Bowel: 1
  tenacity of the adhesions score (in parentheses), Left Horn, Itself: 1
  tenacity of the adhesions score (in parentheses), Left Horn, Right: 1 (6×) and 2
  tenacity of the adhesions score (in parentheses), Right Horn, Bladder: 1
  tenacity of the adhesions score (in parentheses), Right Horn, Bowel: 1
  tenacity of the adhesions score (in parentheses), Right Horn, Itself: 1
  tenacity of the adhesions score (in parentheses), Right Horn, Left: 1 (6×) and 2
[11]
  % Horn Involved, Left Horn, Bowel: 30% (4×) and 20% (3×)
  % Horn Involved, Left Horn, Itself: 20% (2×) and 30% (3×) and 10% and 40%
  % Horn Involved, Left Horn, Right: 20% (2×) and 10% (2×) and 30% (3×)
  % Horn Involved, Right Horn, Bladder: 10%
  % Horn Involved, Right Horn, Bowel: 30% (4×) and 10% and 20% (3×)
  % Horn Involved, Right Horn, Itself: 20% (2×) and 10% (2×) and 40%
  % Horn Involved, Right Horn, Left: 20% (2×) and 10% (2×) and 30% (3×)
[12]
  % Horn Involved, Left Horn, Bladder: 4.0 ± 2.7%
  % Horn Involved, Left Horn, Bowel: 17.0 ± 5.2%
  % Horn Involved, Left Horn, Itself: 18.0 ± 4.2%
  % Horn Involved, Left Horn, Right: 5.0 ± 3.4%
  % Horn Involved, Right Horn, Bladder: 4.0 ± 2.2%
  % Horn Involved, Right Horn, Bowel: 13.0 ± 4.0%
  % Horn Involved, Right Horn, Itself: 13.0 ± 5.0%
  % Horn Involved, Right Horn, Left: 5.0 ± 3.4%
1 mg/ml COMPOUND 1, 2 Week Necropsy Time
  Overall, (group summary): 21.2 ± 5.5
[13]
  Overall score: 1.0 (5×) and 2.5 and 1.5 (2×) and 0.5 and 2.0
  tenacity of the adhesions score (in parentheses), Left Horn, Bladder: 2 and 1
  tenacity of the adhesions score (in parentheses), Left Horn, Bowel: 2 (2×) and 1 (4×)
  tenacity of the adhesions score (in parentheses), Left Horn, Itself: 1 (6×) and 2 (2×)
  tenacity of the adhesions score (in parentheses), Left Horn, Right: 2 and 1
  tenacity of the adhesions score (in parentheses), Right Horn, Bladder: 1
  tenacity of the adhesions score (in parentheses), Right Horn, Bowel: 1 (6×) and 2
  tenacity of the adhesions score (in parentheses), Right Horn, Itself: 1 (4×) and 2
  tenacity of the adhesions score (in parentheses), Right Horn, Left: 2 and 1
[14]
  % Horn Involved, Left Horn, Bladder: 20%
  % Horn Involved, Left Horn, Bowel: 30% (4×) and 10% and 40%
  % Horn Involved, Left Horn, Itself: 20% (3×) and 30% (2×) and 10% (2×) and 40%
  % Horn Involved, Left Horn, Right: 30% and 20%
  % Horn Involved, Right Horn, Bladder: 10% (2×) and 20%
  % Horn Involved, Right Horn, Bowel: 10% (4×) and 30% (3×)
  % Horn Involved, Right Horn, Itself: 20% and 30% (2×) and 10% and 40%
  % Horn Involved, Right Horn, Left: 30% and 20%
[15]
  # Sites Adhesion Free: 36
  % Sites Adhesion Free: 45.0%
[16]
  # Sites Adhesion Free: 45
  % Sites Adhesion Free: 56.25%
